Consider 2 compounds from patent US6713266B1 (Isodiagnostika Inc., priority 1998, dated 2004).

Structures are written as SMILES. Values joined by “and” are separate entries in the source; they are usually repeats but may differ in a detail not shown here. Equal values may be shown once.

One experiment deals with MoAb CSA-1H6. The experiment can be described thus: Inhibition ELISA to the CSA-DVS-HSA conjugate, MoAb. Format: binding, mouse. The method, then:
(§1) Inhibition ELISA Protocol:
(§2) 1. Use Falcon Pro-bind immunoplates.
(§3) 2. Dilute coating antigen to 1 μg/mL in carbonate-bicarbonate buffer. Add 100 μL per well and incubate overnight at 4° C.
(§4) 3. On the same day prepare inhibiting antigen tubes. Aliquot antibodies into glass test tubes. Prepare appropriate antigen concentration in ethanol and add to aliquoted antibody at 10 μL ethanol solution/250 μL antibody. Vortex tubes and incubate overnight at 4° C.
(§5) 4. Shake out wells and wash 3× with 200 μL PBS/0.05% TWEEN™ (polyoxyethylene-sorbitol) (v/v) per well.
(§6) 5. Add 200 μL blocking buffer per well (PBS/2% BSA (w/v)). Incubate 60 min at room temperature.
(§7) 7. Transfer contents of inhibition tubes to antigen-coated plate, 100 μL per well. Incubate 60 min at 37° C.
(§8) 9. Dilute alkaline phosphatase conjugated anti-mouse IgG (Pierce cat#31322) in PBS/0.1% TWEEN™ (polyoxyethylene-sorbitol) (v/v) to 1:5000 concentration. Add 100 μL per well and incubate at 37° C. for 60 min.
(§9) 11. […] Add 100 μL per well and incubate in the dark at room temperature. Absorbance can be read at 405 nm at approximately 15-min intervals.
In general terms: In an ELISA, binding on a coated surface is turned into a signal by an enzyme label.

In another experiment the test system is MoAb CSA-2G9. The description is as above. It is filed as binding, mouse. The method, then:
as §1, §2, §3, §4, §5, §6, §7, §8, §9

In a further experiment the test system is MoAb AM1-2E10. The experiment is described as above. It is filed as binding, mouse. The protocol: as §1, §2, §3, §4, §5, §6, §7
(§10) 9. […] Add 100 μL per well and incubate at 37° C. for 60 min.
as §9

In another experiment the test system is MoAb AM1-7F5. The description is as above. Format: binding, mouse. The method, then: as §1, §2, §3, §4, §5, §6, §7, §10, §9
The test system of experiment [1] is Mouse polyclonal sera (CSA-DVS-KLH immunogen). The experiment can be described thus: Inhibition ELISA, CSA-DVS-HSA coated plate, mouse polyclonal sera. It is filed as binding. Particulars: Mouse sera; Table 3; inhibition ELISA to the CSA-DVS-HSA conjugate. The protocol: as §1, §2, §3, §4, §5, §6, §7, §10, §9
Experiment [2] deals with Mouse polyclonal sera (AM1-DVS-KLH immunogen). The experiment can be described thus: Inhibition ELISA to the CSA-DVS-HSA conjugate, mouse polyclonal sera. It is filed as binding. The protocol: as §1, §2, §3, §4, §5, §6, §7, §10, §9
Experiment [3] concerns Mouse polyclonal sera (AM19-1-DVS (1) - KLH immunogen). The experiment can be described thus: Inhibition ELISA, AM19-1-DVS (1) HSA coated plate, mouse polyclonal sera. Format: binding. The method, then: as §1, §2, §3, §4, §5, §6, §7, §10, §9
Experiment [4] concerns Mouse polyclonal sera (AM19-1-DVS (2) - KLH immunogen). The experiment can be described thus: Inhibition ELISA, AM19-1-DVS (2) HSA coated plate, mouse polyclonal sera. It is filed as binding. The method, then:
as §1, §2, §3, §4, §5, §6, §7, §10, §9

Experiment [5] deals with Rabbit polyclonal sera (AM19-1-DVS-KLH (1) immunogen). The experiment can be described thus: Inhibition ELISA, AM19-1-DVS (1) HSA coated plate, rabbit polyclonal sera. Format: binding. The protocol:
as §1, §2, §3, §4, §5, §6, §7, §10, §9
The AM19-1-DVS (1) conjugate was also used to immunize rabbits.

Experiment [6] has as its system Mouse polyclonal sera (AM19-9-DVS-KLH immunogen). The experiment can be described thus: Inhibition ELISA, AM19-9-DVS-HSA coated plates, mouse polyclonal sera. It is filed as binding. The protocol:
as §1, §2, §3, §4, §5, §6, §7, §10, §9

The test system of experiment [7] is Mouse polyclonal sera (AM9-9-DVS-KLH immunogen). The experiment can be described thus: Inhibition ELISA, AM19-9-DVS-HSA coated plate, mouse polyclonal sera. It is filed as binding. The protocol:
as §1, §2, §3, §4, §5, §6, §7, §10, §9

In another experiment the test system is MoAb AM19-1-7E12-1. The experiment can be described thus: Inhibition ELISA with AM19-1-DVS (1) coated ELISA plates, MoAb. Particulars: AM19-1-7E12-1 TCS. Format: binding, mouse. The protocol: as §1, §2, §3, §4, §5, §6, §7, §10, §9
A further experiment has as its system MoAb AM19-1-7E12-2. Described as above. It is filed as binding, mouse. The settings on record: AM19-1-7F12-2. The protocol: as §1, §2, §3, §4, §5, §6, §7, §10, §9

On to `C/C=C/C[C@@H](C)[C@@H](O)[C@H]1C(=O)N[C@@H](CCC)C(=O)N(C)CC(=O)N(C)[C@@H](CC(C)C)C(=O)N[C@@H](C(C)C)C(=O)N(C)[C@@H](CC(C)C)C(=O)N[C@@H](C)C(=O)N[C@H](C)C(=O)N(C)[C@@H](CC(C)C)C(=O)N(C)[C@@H](CC(C)C)C(=O)N(C)[C@@H](C(C)C)C(=O)N1C` [CSG, cyclosporine G], for which the “Percent Inhibition” value in the experiment on MoAb CSA-1H6 (CSA-1H6, Table 24, CSA, CSG and CSA derivative inhibitors) was 88.6%; with MoAb CSA-2G9 (CSA-2G9, Table 24, CSA, CSG and CSA derivative inhibitors), 89.8%; in the experiment on MoAb AM1-2E10 (AM1-2E10, Table 24, CSA, CSG and CSA derivative inhibitors) it was 61% and 61.2%; with MoAb AM1-7F5 (AM1-7F5, Table 24, CSA, CSG and CSA derivative inhibitors), 28.8%.
In the case of `C=CC[C@@H]1/C=C(\C)C[C@H](C)C[C@H](OC)[C@H]2O[C@@](O)(C(=O)C(=O)N3CCCC[C@H]3C(=O)O[C@H](/C(C)=C/[C@@H]3CC[C@@H](O)[C@H](OC)C3)[C@H](C)[C@@H](O)CC1=O)[C@H](C)C[C@@H]2OC` [FK, tacrolimus], the “Percent Inhibition” value in experiment [1] turned out to be 31.9%; in [2] (Mouse 1) it was 3.5%; in [2] (Mouse 2) it was 13.0%; in experiment [3] (Mouse 1) it was 0%; in [3] (Mouse 2), 0%; in [4] (Mouse 3) it was 0%. For the same compound, the “Percent Inhibition” value in experiment [4] (Mouse 4) worked out at 0%; in experiment [5], 0%; in [6] (Mouse 5), 0%; in experiment [6] (Mouse 6), 0%; in experiment [7] (Mouse 1), 24.2%; in experiment [7] (Mouse 2), 34.5%. The “Percent Inhibition of TCS” value in the experiment on MoAb CSA-1H6 (CSA-1H6 TCS, Table 16, CSA-DVS-HSA conjugate) is listed as 0%; in the experiment on MoAb CSA-2G9 (CSA-2G9 TCS, Table 16, CSA-DVS-HSA conjugate), 10.8%; with MoAb AM1-2E10 (AM1-2E10 TCS, Table 18, CSA-DVS-HSA coated plate), 0%; in the experiment with MoAb AM1-7F5 (AM1-7F51, TCS, Table 18, CSA-DVS-HSA coated plate) it was 26.0%; with MoAb AM19-1-7E12-1, 6.3%; in the experiment with MoAb AM19-1-7E12-2, 3.2%.
